Assays:
Assay in all cases: 5-day cell proliferation assay (CTG)
Assay type in all cases: cell-based
HCC2935 = conditions: Homo sapiens, 120 h, HCC2935, Lung, highest tested concentration 10 μM
Description: (§1) For screening using a proliferation assay, the cells used were cultured at 37° C. with 5% CO2, except for those being cultured with L-15 medium (37° C. and 100% air, TABLE 7). Compound stock solutions (10 mM) were made in sterile water, aliquoted and stored at room temperature. Cisplatin was used as reference Control. Plastic consumables, culture media and supplements were purchased from well-known suppliers (TABLE 8).
(§2) Cell seeding (day −1). When necessary, cells were trypsinized using standard methods (see e.g. example 01). Cells were collected and resuspended in 5-6 mL of appropriate culture medium, counted and diluted to the needed density. Fifty-four μl (microliter) cells were seeded per well in a 384-well plate. Extra four wells per cell line were seeded on an additional plate for Day 0 reading (baseline cell density). Cells were incubated at 37° C. overnight.
(§3) Compound treatment and Day 0 reading (day 0). Tenfold final concentration of test compounds and Cisplatin were prepared in cell culture media (work dilutions). Six μl of work dilution solutions were dispensed into the corresponding wells in 384-well plates to bring the total volume up to 60 μl. Conditions were tested in triplicate. The plates were then incubated at 37° C. for five days. For the day 0 reading, 30 μl of CTG and 6 μl cell culture medium were added to the day 0 plates, contents mixed for 2 min on a plate shaker, and the plates incubated for 10 min at room temperature in the dark. Luminescence was recorded on an EnVision Multi Label Reader (2104-0010A, PerkinElmer, USA).
(§4) Endpoint CTG reading (day 5). The amounts of cells in the plates was determined by endpoint CTG-test. Thirty μl of CTG were added to the 60 μl of cell culture per well, contents mixed for 2 min on a plate shaker, and the plates incubated for 10 min at room temperature in the dark. Luminescence was recorded on an EnVision Multi Label Reader.
(§5) Data analysis. Fifty percent growth inhibition concentrations (GI50) were calculated based on percentage of control data (untreated cells) from each cell line (TABLE 5 (this example) and TABLE 6). Curves were fitted using a nonlinear regression model with a sigmoidal dose response. Examples of obtained curves are depicted in FIG. 2A-2F.

H460 = conditions: Homo sapiens, NCI-H460, 120 h, H460, Lung
Description: as §1, §2, §3, §4, §5

KARPAS-299 = conditions: Homo sapiens, 120 h, KARPAS-299, Lymphoma
Description: as §1, §2, §3, §4, §5

OVCAR-3 = conditions: Homo sapiens, 120 h, OVCAR-3, Ovary
Description: as §1, §2, §3, §4, §5

K562 = conditions: Homo sapiens, 120 h, K562, Leukemia
Description: as §1, §2, §3, §4, §5

AU565 = conditions: Homo sapiens, 120 h, AU565, Breast
Description: as §1, §2, §3, §4, §5

H4 = conditions: Homo sapiens, 120 h, H4, Brain/Nerves
Description: as §1, §2, §3, §4, §5

786-O = conditions: Homo sapiens, 786-0, 120 h, Kidney
Description: as §1, §2, §3, §4, §5

Kasumi-1 = conditions: Homo sapiens, 120 h, Kasumi-1, Leukemia
Description: as §1, §2, §3, §4, §5

OVCAR-4 = conditions: Homo sapiens, 120 h, OVCAR-4, Ovary
Description: as §1, §2, §3, §4, §5

Ramos = conditions: Homo sapiens, 120 h, Lymphoma
Description: as §1, §2, §3, §4, §5

SiHa = conditions: Homo sapiens, 120 h, Cervix
Description: as §1, §2, §3, §4, §5

SF268 = conditions: Homo sapiens, SF-268, 120 h, SF268, Brain/Nerves
Description: as §1, §2, §3, §4, §5

MOLM-13 = conditions: Homo sapiens, 120 h, MOLM-13, Leukemia
Description: as §1, §2, §3, §4, §5

SK-MEL28 = conditions: Homo sapiens, SK-MEL-28, 120 h, SK-MEL28, Skin
Description: as §1, §2, §3, §4, §5

Hep G2 = conditions: Homo sapiens, HepG2, 120 h, Hep G2, Liver
Description: as §1, §2, §3, §4, §5

KARPAS-422 = conditions: Homo sapiens, 120 h, KARPAS-422, Lymphoma
Description: as §1, §2, §3, §4, §5

A375 = conditions: Homo sapiens, A-375, 120 h, A375, Skin
Description: as §1, §2, §3, §4, §5

MKN-45 = conditions: Homo sapiens, 120 h, MKN-45, Stomach/Gastric
Description: as §1, §2, §3, §4, §5

PANC-1 = conditions: Homo sapiens, 120 h, PANC-1, Pancreas
Description: as §1, §2, §3, §4, §5

DoTc2 4510 = conditions: Homo sapiens, 120 h, DoTc2 4510, Cervix
Description: as §1, §2, §3, §4, §5

MIA PaCa-2 = conditions: Homo sapiens, 120 h, MIA PaCa-2, Pancreas
Description: as §1, §2, §3, §4, §5

Daudi = conditions: Homo sapiens, 120 h, Lymphoma
Description: as §1, §2, §3, §4, §5

Granta-519 = conditions: Homo sapiens, 120 h, Granta-519, Lymphoma
Description: as §1, §2, §3, §4, §5

HT-3 = conditions: Homo sapiens, 120 h, HT-3, Cervix
Description: as §1, §2, §3, §4, §5

HCC4006 = conditions: Homo sapiens, 120 h, HCC4006, Lung
Description: as §1, §2, §3, §4, §5

KYSE-270 = conditions: Homo sapiens, 120 h, KYSE-270, Oesophagus
Description: as §1, §2, §3, §4, §5

LNCaP-FGC = conditions: Homo sapiens, 120 h, Prostate
Description: as §1, §2, §3, §4, §5

22RV1 = conditions: Homo sapiens, 120 h, 22RV1, Prostate
Description: as §1, §2, §3, §4, §5

CC(C)C[C@@H]1NCCN([C@@H](CC(C)C)C(=O)N2CCC3(C[C@@H]2C)OCC(CN2CCCC2)CO3)C1=O (stereo partly drawn) [Compound 258, (3S)-1-[(2S)-4-methyl-1-oxo-1-[(3s,6s,8S)-8-methyl-3-(pyrrolidin-1-ylmethyl)-1,5-dioxa-9-azaspiro[5.5]undec-an-9-yl]pentan-2-yl]-3-(2-methylpropyl)piper-azin-2-one (^≠), isomer Z]
GI50 (HCC2935): > 10000 nM | GI50 (H460): 11 nM | GI50 (KARPAS-299): 5 nM | GI50 (OVCAR-3): 44 nM | GI50 (K562): 17 nM | GI50 (AU565): 3 nM | GI50 (H4): 11 nM | GI50 (786-O): 28 nM | GI50 (Kasumi-1): 19 nM | GI50 (OVCAR-4): 12 nM | GI50 (Ramos): 27 nM | GI50 (SiHa): 52 nM | GI50 (SF268): 30 nM | GI50 (MOLM-13): 4 nM | GI50 (SK-MEL28): 50 nM | GI50 (Hep G2): 6 nM | GI50 (KARPAS-422): 48 nM | GI50 (A375): 6 nM | GI50 (MKN-45): 4 nM | GI50 (PANC-1): 22 nM | GI50 (DoTc2 4510): 14 nM | GI50 (MIA PaCa-2): 11 nM | GI50 (Daudi): 80 nM | GI50 (Granta-519): 38 nM | GI50 (HT-3): 330 nM | GI50 (HCC4006): 8 nM | GI50 (KYSE-270): 44 nM | GI50 (LNCaP-FGC): 2 nM | GI50 (22RV1): 9 nM

Source: patent US20250115571A1, “OXOPIPERAZINE DERIVATIVES” (Inthera Bioscience AG, priority 2017, published 2025)
